In series [1] the test system is cellular microtubules. Conditions: read-out: Cellular microtubule depolymerization EC50; lead compounds; cited from earlier work.
The test system of series [2] is tubulin. Particulars: lead compounds, cited from earlier work.
The subject of series [3] is tubulin. As to the kind of experiment: Inhibition of [3H]colchicine binding to tubulin.
Series [4] relates to cellular microtubules. As to the kind of experiment: Cellular microtubule depolymerization. The class given is cell-based. Particulars: 5-methyl vs 5-desmethyl compound.
The test system of a further series is MDA-MB-435. The series can be described thus: Antiproliferative effects in MDA-MB-435. The class given is cell-based, human. Conditions: 5-methyl vs 5-desmethyl compound.
Series [5] concerns tubulin. As to the kind of experiment: Inhibition of tubulin assembly. Format: biochemical.
For series [6], the system named is MCF-7 TUBB3 (βIII-tubulin overexpressing) tumors. As to the kind of experiment: MCF-7 TUBB3 orthotopic xenograft. The class given is in vivo, mouse. Conditions: athymic female mice; 9 at 30 mg/kg two times weekly, paclitaxel 10 mg/kg/week.
Series [7] can be described thus: Animal weight and MTD in xenograft study.
The next series has as its system NCI 60 cell line panel. The series can be described thus: NCI-60 panel, overall. Format: cell-based. Particulars: Homo sapiens, read-out: GI50 against most/many tumor cell lines.

Entries after “also recorded” stand apart in the source; their conditions may differ. Read-outs that look alike come from different tables or passages of the source.

For the compound `COc1ccc(/C=C\c2cc(OC)c(OC)c(OC)c2)cc1O` [CA-4, combretastatin A-4], the EC50 in the series with cellular microtubules [1] is 9.8 nM. For the same compound, the “Inhibition of colchicine binding, % inhibition ± SD” value with tubulin [2] (0.5 μM inhibitor) and with tubulin [3] (0.5 μM inhibitor) was 84 ± 3% each time.
With `COc1ccc(Nc2nc(C)nc3cc[nH]c23)cc1` [Compound 1], the concentration giving a half-maximal response (EC50) in the series with cellular microtubules [1] is above 10000 nM. The “Inhibition of colchicine binding, % inhibition ± SD” value in the series on tubulin [2] (5 μM inhibitor) is on record as 0%.
On to `COc1ccc(N(C)c2nc(C)nc3cc[nH]c23)cc1` [Compound 2], for which the EC50 in the series with cellular microtubules [1] is 1200 nM.
Regarding `COc1ccc(N(C)c2nc(C)nc3ccn(C)c23)cc1` [Compound 3], the “Fold more potent in cellular microtubule depolymerization than 5-desmethyl 2” value in the series with cellular microtubules [4] is 160 fold. Moreover, the “Fold more potent in antiproliferative effects than 5-desmethyl 2” value in the series with MDA-MB-435 came to 22 fold. Further, the 50% effective concentration (EC50) with cellular microtubules [1] was 7.4 nM.
As for `COc1ccc(N(C)c2nc(C)nc3c(Cc4ccccc4)cn(C)c23)cc1` [Compound 5], the “Fold more potent in inhibiting tubulin assembly than 5-desmethyl compound” value with tubulin [5] (5 vs 4, 7 vs 6) was determined as 43 fold.
Consider `COc1ccc(N(C)c2nc(Cl)nc3cnn(C)c23)cc1` [Compound 9], for which, in [6], the “Primary tumor growth / tumor volume” value is recorded as “decreased primary tumor growth”. Further, in [7] (percent weight change at day 41 over starting weight), the Animal weight change result is on record as “no significant weight loss”. Further, in the series on NCI 60 cell line panel, the GI50 was at most 10 nM.
In the case of `COc1ccc(Nc2nc(Cl)nc3cnn(C)c23)cc1` [Compound 10], the “Inhibition of [3H]colchicine binding, in words” value in the series on tubulin [3] was “completely inactive”. The “Inhibition of tubulin assembly, in words” value in the series with tubulin [5] is “did not inhibit tubulin assembly; also recorded: no effect”. Further, the half-maximal inhibitory concentration (IC50) with tubulin [5] (read-out: Inhibition of tubulin assembly IC50 ± SD) was above 20000 nM.
As for `CSc1ccc(N(C)c2nc(Cl)nc3cnn(C)c23)cc1` [Compound 15], in the series on tubulin [3], the “Inhibition of [3H]colchicine binding, in words” value is recorded as “equipotent to 9”.
For the compound `CC(=O)O[C@H]1C(=O)[C@@]2(C)[C@H]([C@H](OC(=O)c3ccccc3)[C@]3(O)C[C@H](OC(=O)[C@H](O)[C@@H](NC(=O)c4ccccc4)c4ccccc4)C(C)=C1C3(C)C)[C@]1(OC(C)=O)CO[C@@H]1C[C@@H]2O` [Paclitaxel, paclitaxel], in series [7] (mice), the “Maximally tolerated dose (MTD)” value was 10 mg/kg/week.

What is called EC50 is the concentration giving half of the maximal effect. In general, IC50 refers to the concentration that inhibits the measured activity by half.

Source of the values: publication PMC8113149 (Bioorganic & medicinal chemistry letters, 2021).
